Results as given in patent US8815909B2, “Diaminocyclohexane compounds and uses thereof” (Bristol-Myers Squibb Company, priority 2011, dated 2014).

Molecular target: T1, human Y4 receptor (Homo sapiens, UniProt P50391)
T1 construct: expressed in transfected cells
Test: NPY4 cAMP HTRF Agonist Assay (inhibitory cAMP assay, Gi activation by Y4 agonism)
Assay type: cell-based
Settings: TABLE 2, R2 is Phenyl-CN; read-out: hY4 CAMP EC50
Procedure: NPY4 cAMP HTRF Agonist Assay
The functionality of the compound at Y4 receptor was analyzed using a inhibitory cAMP assay (CISBIO, HTRF cAMP kit #62AM4PEC) to measure the Gi activation by Y4 agonism.
The human Y4 stable CHO clonal cells were maintained in culture medium (F-12 containing 10% Fetal Bovine Serum, […] GENETICIN®, […] Zeocin). Before the experiment, 5 μL of 1 uM Forskolin (Sigma, # F6886) and 100 uM IBMX (Sigma, # I5879) in PBS buffer were added into 384-well plates (PE, Proxi-plate) that were pre-dotted with 100 nL compounds. The cells were removed from the flasks by Cellstripper, counted and adjusted to 1.0×10^6 cells/mL in PBS buffer, and added 5 μL/well (5000 cells/well) into the above 384-well plates. The cells were then covered and incubated for 30 minutes at room temperature. After incubation, 5 μL/well of D2-conjugate in HTRF lysis buffer was first added, followed by adding 5 μL/well of anti-cAMP Cryptate in HTRF lysis buffer. The plates were incubated for another 1 hour at room temperature and read on the EnVision Multilabel Plate Reader.
Compounds described herein were tested in the above assay.

T1 sequence (P50391 whole entry): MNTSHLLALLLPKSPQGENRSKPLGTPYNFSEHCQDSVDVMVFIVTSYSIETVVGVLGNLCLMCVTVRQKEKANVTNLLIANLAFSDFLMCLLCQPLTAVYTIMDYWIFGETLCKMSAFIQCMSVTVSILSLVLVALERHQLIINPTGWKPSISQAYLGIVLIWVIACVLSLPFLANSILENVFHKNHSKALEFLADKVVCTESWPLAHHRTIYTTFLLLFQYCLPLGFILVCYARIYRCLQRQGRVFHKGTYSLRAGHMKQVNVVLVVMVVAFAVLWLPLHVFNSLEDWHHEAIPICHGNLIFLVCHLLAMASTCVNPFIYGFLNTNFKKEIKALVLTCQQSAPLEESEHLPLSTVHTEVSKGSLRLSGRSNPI

| EC50 | Compound |
| --- | --- |
| 40 nM | N#Cc1ccc(N2CCC[C@H](N[C@@H]3CCCC[C@H]3Nc3cc(-c4cccc(S(N)(=O)=O)c4)ccn3)C2)cc1 [Example 236] |
| 100 nM | CC(=O)c1cccc(-c2ccnc(N[C@@H]3CCCC[C@H]3N[C@H]3CCCN(c4ccc(C#N)cc4)C3)c2)c1 [Example 257] |
| 13 nM | N#Cc1ccc(N2CCC[C@H](N[C@@H]3CCCC[C@H]3Nc3cc(-c4cccc5c4CC(=O)N5)ccn3)C2)cc1 [Example 212] |

Same assay, conditions: TABLE 3, R2 is Phenyl-NO2; read-out: hY4 CAMP EC50

| EC50 | Compound |
| --- | --- |
| 74 nM | O=[N+]([O-])c1ccc(N2CCC[C@H](N[C@@H]3CCCC[C@H]3NC3=NOC(c4ccccc4)C3)C2)cc1 (stereo partly drawn) [Example 286] |

Same assay, conditions: TABLE 4, R2 is Pyridinyl-CN; read-out: hY4 CAMP EC50

| EC50 | Compound |
| --- | --- |
| 105 nM | CC(C)(O)c1cccc(-c2ccnc(N[C@@H]3CCCC[C@H]3N[C@H]3CCCN(c4ccc(C#N)nc4)C3)c2)c1 [Example 317] |
| 7 nM | N#Cc1ccc(N2CCC[C@H](N[C@@H]3CCCC[C@H]3Nc3ncc(-c4cccc(C(N)=O)c4)o3)C2)cn1 [Example 305] |

Same assay, conditions: TABLE 5, R2 is Pyridinyl-CF3; read-out: hY4 CAMP EC50

| EC50 | Compound |
| --- | --- |
| 10 nM | NC(=O)c1cccc(-c2ccnc(N[C@@H]3CCCC[C@H]3N[C@H]3CCCN(c4ccc(C(F)(F)F)cn4)C3)c2)c1 [Example 319] |
| 180 nM | NC(=O)c1cccc(-c2ccnc(N[C@@H]3CCCC[C@H]3N[C@H]3C[C@@H]4C[C@H]3N(c3ccc(C(F)(F)F)nc3)C4)c2)c1 [Example 327] |
| 16 nM | NC(=O)c1cccc(-c2ccnc(N[C@@H]3CCCC[C@H]3N[C@H]3CCCN(c4ccc(C(F)(F)F)nc4)C3)c2)c1 [Example 321] |

Same assay, conditions: human Y4 receptor, cAMP; read-out: hY4 CAMP EC50

| Compound | EC50 |
| --- | --- |
| Cc1nnc(-c2ccc(N3CCCC(N[C@@H]4CCCC[C@H]4Nc4cc(-c5ccncc5)ccn4)C3)cc2)o1 (stereo partly drawn) [Example 369] | 5 nM |
| C[C@]1(N[C@@H]2CCCC[C@H]2Nc2ncc(-c3cccc(C(N)=O)c3)o2)CCCN(c2ccc(-c3noc(C4CC4)n3)nc2)C1 [Example 449] | 5 nM |
| NC(=O)c1cccc(-c2ccnc(N[C@@H]3CCCC[C@H]3N[C@H]3CCCN(c4ccc(-c5noc(C6CC6)n5)cn4)C3)c2)c1 [Example 451] | 4 nM |
| CCNC(=O)Nc1cccc(-c2cnc(N[C@@H]3CCCC[C@H]3N[C@H]3CCCN(c4cnc(C(F)(F)F)nc4)C3)o2)c1 [Example 417] | 6 nM |
| Cc1nnc(-c2ccc(N3CCC[C@H](N[C@@H]4CCCC[C@H]4Nc4ncc(-c5ccccc5OC(F)(F)F)o4)C3)cc2)o1 [Example 348] | 3 nM |
| CC(C)(C)COC(=O)Nc1cccc(-c2cnc(N[C@@H]3CCCC[C@H]3N[C@H]3CCCN(c4cnc(C(F)(F)F)nc4)C3)o2)c1 [Example 420] | 212 nM |
| Cn1nnc(-c2ccc(N3CCC[C@H](N[C@@H]4CCCC[C@H]4Nc4ncc(-c5ccc(OC(F)(F)F)cc5)o4)C3)cc2)n1 [Example 499] | 1.4 nM |
| COC(=O)Nc1cccc(-c2cnc(N[C@@H]3CCCC[C@H]3N[C@H]3CCCN(c4ccc5nc(C)nn5c4)C3)o2)c1 [Example 490] | 1 nM |
| CC(C)(C)OC(=O)Nc1cccc(-c2cnc(N[C@@H]3CCCC[C@H]3N[C@H]3CCCN(c4ccc5ncnn5c4)C3)o2)c1 [Example 488] | 699 nM |
| Cn1nnnc1-c1ccc(N2CCC[C@H](N[C@@H]3CCCC[C@H]3Nc3nccc(-c4ccccc4)n3)C2)cc1 [Example 502] | 98 nM |
| CC(C)OC(=O)Nc1cccc(-c2cnc(N[C@@H]3CCCC[C@H]3N[C@H]3CCCN(c4cnc(C(F)(F)F)nc4)C3)o2)c1 [Example 421] | 23 nM |
| N#Cc1cnc(N2C[C@@H]3C[C@H](N[C@@H]4CCCC[C@H]4Nc4cc(Br)ccn4)[C@H]2C3)nc1 [Example 441] | 803 nM |
| Cc1nc2ccc(N3CCC[C@H](N[C@@H]4CCCC[C@H]4Nc4ncc(-c5cc(F)c(F)cc5F)o4)C3)cn2n1 [Example 497] | 46 nM |
| NC(=O)c1cccc(-c2cnc(N[C@@H]3CCCC[C@H]3N[C@H]3CCCN(c4ccc(F)cc4)C3)o2)c1 [Example 461] | 55 nM |
| O=C(NC1CC1)c1cccc(-c2cnc(N[C@@H]3CCCC[C@H]3N[C@H]3CCCN(c4ccc5ncnn5c4)C3)o2)c1 [Example 486] | 78 nM |
| COC(=O)Nc1cccc(-c2ccnc(N[C@@H]3CCCC[C@H]3N[C@H]3CCCN(c4cnc(C(F)(F)F)nc4)C3)c2)c1 [Example 413] | 6 nM |
| NC(=O)c1cccc(-c2cnc(N[C@@H]3CCCC[C@H]3N[C@H]3CCCN(c4ncc(C(F)(F)F)cn4)C3)o2)c1 [Example 398] | 5 nM |

Next, values leading:

| EC50 | Compound |
| --- | --- |
| 0.2 nM | Cc1nc(-c2ccc(N3CCC[C@H](N[C@@H]4CCCC[C@H]4Nc4cc(-c5cccc(C(N)=O)c5)ccn4)C3)cc2)no1 [Example 347] |
| 34 nM | NC(=O)c1cccc(-c2ccnc(N[C@@H]3CCCC[C@H]3N[C@H]3CCCN(c4ccc5ncnn5c4)C3)c2)c1 [Example 481] |

Same assay, conditions: human Y4 stable CHO clonal cells, forskolin + IBMX; read-out: NPY4 cAMP HTRF Agonist Assay EC50

| Compound | EC50 |
| --- | --- |
| c1ccc(-c2cnc(N[C@@H]3CCCC[C@H]3N[C@H]3CCCN(c4ccc(-n5cncn5)cc4)C3)o2)cc1 [Example 90, (1R,2R)—N1-((S)-1-(4-(1H-1,2,4-Triazol-1-yl)phenyl)piperidin-3-yl)-N2-(5-phenyloxazol-2-yl)cyclohexane-1,2-diamine bis-trifluoroacetate] | 132 nM |
| COc1cccc(-c2ccnc(N[C@@H]3CCCC[C@H]3N[C@H]3CCCN(c4ccc([N+](=O)[O-])cc4)C3)n2)c1 [Example 30, (1R,2R)—N1-(4-(3-Methoxyphenyl)pyrimidin-2-yl)-N2-((S)-1-(4-nitrophenyl)piperidin-3-yl)cyclohexane-1,2-diamine] | 203 nM |
| N#Cc1ccc(N2CCC[C@H](N[C@@H]3CCCC[C@H]3Nc3ncc(-c4ccccc4)o3)C2)cc1 [Example 57, 4-((S)-3-((1R,2R)-2-(5-Phenyloxazol-2-ylamino)cyclohexylamino)piperidin-1-yl)benzonitrile] | 25 nM |
| NC(=O)c1cccc(-c2cnc(N[C@@H]3CCCC[C@H]3N[C@H]3CCCN(c4ccc(C(F)(F)F)cc4)C3)o2)c1 [Example 104, (3-(2-((1R,2R)-2((S)-1-(4-trifluoromethyl)phenyl)piperidin-3-ylamino)cyclohexylamino)oxazol-5-yl)benzamide] | 0.2 nM |
| FC(F)(F)c1ccc(N2CCC[C@H](N[C@@H]3CCCC[C@H]3Nc3ncc(-c4ccccc4)s3)C2)cc1 [Example 72, (1R,2R)—N1-(5-Phenylthiazol-2-yl)-N2-((S)-1-(4-(trifluoromethyl)phenyl)piperidin-3-yl)cyclohexane-1,2-diamine] | 15 nM |
| O=[N+]([O-])c1ccc(N2CCC[C@H](N[C@@H]3CCCC[C@H]3Nc3ncc(-c4ccc(F)c(F)c4)o3)C2)cc1 [Example 10, (1R,2R)—N1-(5-(3,4-Difluorophenyl)oxazol-2-yl)-N2-((S)-1-(4-nitrophenyl)piperidin-3-yl)cyclohexane-1,2-diamine] | 26 nM |
| Cc1cnn(-c2ccc(N3CCC[C@H](N[C@@H]4CCCC[C@H]4Nc4nccc(-c5ccccc5)n4)C3)cc2)c1 [Example 65, (1R,2R)—N1-((S)-1-(4-(4-Methyl-1H-pyrazol-1-yl)phenyl)piperidin-3-yl)-N2-(4-phenylpyrimidin-2-yl)cyclohexane-1,2-diamine bis-trifluoroacetate] | 62 nM |

More lines, now with the values ahead:

| EC50 | Compound |
| --- | --- |
| 50 nM | N#Cc1ccc(N2CCC[C@H](N[C@@H]3CCCC[C@H]3Nc3cc(-c4ccc(F)cc4)ccn3)C2)cc1 [Example 44, 4-((S)-3-((1R,2R)-2-(4-(4-Fluorophenyl)pyridin-2-ylamino)cyclohexylamino)piperidin-1-yl)benzonitrile tris-trifluoroacetate] |
| 208 nM | N#Cc1ccc(N2CCC[C@H](N[C@@H]3CCCC[C@H]3Nc3cc(-c4ccc(Cl)cc4)ccn3)C2)cc1 [Example 46, 4-((S)-3-((1R,2R)-2-(4-(4-Chlorophenyl)pyridin-2-ylamino)cyclohexylamino)piperidin-1-yl)benzonitrile tris-trifluoroacetate] |

Same assay, conditions: second TABLE 1, R2 is Phenyl-CF3; read-out: hY4 CAMP EC50

| Compound | EC50 |
| --- | --- |
| FC(F)(F)Oc1cccc(-c2cnc(N[C@@H]3CCCC[C@H]3N[C@H]3CCCN(c4ccc(C(F)(F)F)cc4)C3)nc2)c1 [Example 177] | 781 nM |
| N#Cc1ccc(N[C@@H]2CCCC[C@H]2N[C@H]2CCCN(c3ccc(C(F)(F)F)cc3)C2)nc1 [Example 192] | 284 nM |
| FC(F)(F)Oc1ccc(-n2nnc(N[C@@H]3CCCC[C@H]3N[C@H]3CCCN(c4ccc(C(F)(F)F)cc4)C3)n2)cc1 [Example 121] | 922 nM |

Next, values leading:

| EC50 | Compound |
| --- | --- |
| 1 nM | CNC(=O)c1cccc(-c2ccnc(N[C@@H]3CCCC[C@H]3N[C@H]3CCCN(c4ccc(C(F)(F)F)cc4)C3)c2)c1 [Example 130] |
| 235 nM | CC(C)(C)c1cccc(-c2ccnc(N[C@@H]3CCCC[C@H]3N[C@H]3CCCN(c4ccc(C(F)(F)F)cc4)C3)c2)c1 [Example 155] |
| 27 nM | CC(C)(O)Cc1cccc(-c2ccnc(N[C@@H]3CCCC[C@H]3N[C@H]3CCCN(c4ccc(C(F)(F)F)cc4)C3)c2)c1 [Example 189] |
| 9 nM | CCNC(=O)c1cccc(-c2ccnc(N[C@@H]3CCCC[C@H]3N[C@H]3CCCN(c4ccc(C(F)(F)F)cc4)C3)c2)c1 [Example 138] |
| 58 nM | CCNCc1cccc(-c2ccnc(N[C@@H]3CCCC[C@H]3N[C@H]3CCCN(c4ccc(C(F)(F)F)cc4)C3)c2)c1 [Example 142] |
